The values below come from ChEMBL document CHEMBL4619827, “Design, Synthesis, and Biological Evaluation of Novel Acylhydrazone Derivatives as Potent Neuraminidase Inhibitors” (ACS Med Chem Lett, 2020).

Each structure is given as a SMILES string.

This test is described as follows: Inhibition of clostridium perfringens neuraminidase using fluorescent substrate preincubated for 2 mins followed by substrate addition and measured after 1 hr by fluorescence based microplate reader analysis.
Compound `COc1ccc(Br)cc1OCc1cccc(/C=N/NC(=O)C(=O)NCCCN2CCOCC2)c1` showed an IC50 of 7.31 µM.
Take `O=C(NCCCN1CCOCC1)C(=O)N/N=C/c1cccc(COc2ccccc2Cl)c1`: it took 20.4 µM to reach half-maximal inhibition (IC50).
For `O=C(NCCCN1CCOCC1)C(=O)N/N=C/c1cccc(COc2ccc([N+](=O)[O-])cc2)c1`, the IC50 worked out at 27.8 µM.
For `O=C(NCCCN1CCOCC1)C(=O)N/N=C/c1cccc(COc2ccc(Cl)cc2)c1` the value was 6.2 µM; for `COc1ccccc1OCc1cccc(/C=N/NC(=O)C(=O)NCCCN2CCOCC2)c1`, 47.8 µM; for `O=C(NCCCN1CCOCC1)C(=O)N/N=C/c1cccc(COc2ccccc2[N+](=O)[O-])c1`, 86 µM.
In the case of `COc1cccc(OCc2cccc(/C=N/NC(=O)C(=O)NCCCN3CCOCC3)c2)c1` it was 13.6 µM; in that of `O=C(NCCCN1CCOCC1)C(=O)N/N=C/c1cccc(COc2cc(F)ccc2[N+](=O)[O-])c1`, 17.8 µM.
In turn, `O=C(NCCCN1CCOCC1)C(=O)N/N=C/c1cccc(COc2cccc(Cl)c2)c1` returned an IC50 of 22.1 µM.
For `CC(=O)Nc1ccc(OCc2cccc(/C=N/NC(=O)C(=O)NCCCN3CCOCC3)c2)cc1` the value was 73.4 µM.
For `O=C(NCCCN1CCOCC1)C(=O)N/N=C/c1cccc(COc2ccccc2F)c1` the value was 21.6 µM; for `COc1cc([N+](=O)[O-])ccc1OCc1cccc(/C=N/NC(=O)C(=O)NCCCN2CCOCC2)c1`, 28.4 µM; for `O=C(NCCCN1CCOCC1)C(=O)N/N=C/c1cccc(COc2ccc(F)cc2)c1`, 5.29 µM.
With `COc1ccc(OCc2cccc(/C=N/NC(=O)C(=O)NCCCN3CCOCC3)c2)cc1`, the IC50 was 0.6 µM.
Compound `CCC(CC)O[C@@H]1C=C(C(=O)O)C[C@H](N)[C@H]1NC(C)=O` [OSELTAMIVIR CARBOXYLATE] had an IC50 of 17 µM.

The IC50 is the point on the concentration scale where inhibition reaches its midpoint. High values mean lower potency, low ones higher potency.
